US7279479B2, “Method for the treatment of heart failure” (Orion Corporation, priority 2001, dated 2007)

Tests used:
[1] = tested on: guinea-pigs intoxicated with verapamil; test: Survival of anesthetized guinea-pigs intoxicated with verapamil (acute heart failure); assay type: in vivo, guinea-pig (Dunkin Hartley); details: verapamil 2.0 mg/kg i.v.; 60 min follow-up; low doses: levosimendan 8.4 μg/kg bolus + 0.14 μg/kg/min, CaCl2 10 mg/kg bolus + 0.5 mg/kg/min; vs saline control
Procedure: At zero time, the intoxication was started with an intravenous bolus injection of verapamil and immediately continued with a 4-min infusion. The total dose of verapamil was 2.0 mg/kg. Control animals were treated with saline.
(§1) 120 spontaneously breathing guinea-pigs (Dunkin Hartley, weighing 470±5 grams, mean±SEM) were anesthetised with isoflurane. The left ventricular and brachial arterial pressures were measured. The carotid artery was surgically exposed in order to introduce a pressure transducer into the left ventricle. A fluid-filled polyethylene cannula was inserted into the brachial artery and connected to another pressure transducer for recording of arterial pressure. The pressure signals were amplified, digitized and sampled.

[2] = tested on: guinea-pigs intoxicated with diltiazem; test: Survival of anesthetized guinea-pigs intoxicated with diltiazem (acute heart failure); assay type: in vivo, guinea-pig (Dunkin Hartley); details: diltiazem 4.5 mg/kg i.v.
Procedure: At zero time, the intoxication was started with an intravenous bolus injection of diltiazem and immediately continued with a 4-min infusion. The total dose of diltiazem was 4.5 mg/kg. Control animals were treated with saline. All treatments were started one minute after the end of the diltiazem infusion. *p<0.05, **p<0.01, ***p<0.001 vs. control (Kaplan-Meier survival analysis followed by the logrank test).
as §1

Structure (SMILES)	effect on survival (in words) [1]	survival rate ([2]; 60 minutes after intoxication began, levosimendan 8.4 μg/kg bolus + 0.14 μg/kg/min, control 13%) [%]	effect on survival (in words) ([2]; 60 min follow-up, low doses: levosimendan 8.4 μg/kg bolus + 0.14 μg/kg/min, CaCl2 10 mg/kg bolus + 0.5 mg/kg/min, vs saline control)
CC1CC(=O)NN=C1c1ccc(NN=C(C#N)C#N)cc1 (single isomer, unassigned; (-)) [levosimendan, (−)-enantiomer of [[4-(1,4,5,6-tetrahydro-4-methyl-6-oxo-3-pyridazinyl)phenyl]hydrazono]propanedinitrile]	did not improve the survival	63	
[Ca+2].[Cl-].[Cl-] [calcium chloride]	did not affect the survival rate		did not affect the survival rate
